Reference: patent publication US20090068290A1, “BIFEPRUNOX DOSES FOR TREATING SCHIZOPHRENIA” (priority 2006, published 2009)

Key:
[1] = system: patients with chronic schizophrenia; test: PANSS positive subscale score, Clinical Study Four; type: in vivo, human; conditions: FAS, ANCOVA; for PANSS positive subscale, Adjusted Mean Change from Baseline (LS mean): LOCF
Description: (§1) METHODOLOGY: This study was a multinational, multicenter, randomized, double-blind, parallel-group, placebo-controlled, fixed-dose study. The study consisted of a 3- to 6-day antipsychotic-free run-in period, after which patients were randomised to 6 months of double-blind treatment with fixed doses of bifeprunox (20 mg/day (BX20) or 30 mg/day (BX30)) or placebo (PBO). Patients allocated to the BX groups were up-titrated from 0.25 mg/day over 7 days (BX20) or 8 days (BX30), and then continued on these doses for the remainder of the study. […] At predetermined time points, blood samples were obtained for drug concentration analysis of BX and its major metabolites (3′- and 4′-sulfate conjugates of BX), and pharmaco-economic assessments were performed.

[2] = system: patients with chronic schizophrenia; test: CGI-S score, Clinical Study Four; type: in vivo, human; conditions: FAS, ANCOVA; for CGI-S, Adjusted Mean Change from Baseline (LS mean): LOCF; for mean CGI-S scores, time points of statistically significant superiority to PBO: per-visit LOCF analysis
Description: as §1

[3] = system: patients with chronic schizophrenia; test: CGI-I score and CGI-I responders (score 2 or less), Clinical Study Four; type: in vivo, human; conditions: FAS; for proportion of patients with a CGI-I score ≦2 / CGI-I, Adjusted mean values (LS mean): LOCF; for CGI-I, Adjusted mean values (LS mean): adjusted mean values instead of change from baseline
Description: as §1
CLINICAL STUDY FOUR: The proportion of patients with a CGI-I score ≦2 at each visit (CGI-I responders; FAS, LOCF) is show below in FIG. 5.

[4] = Weight, BMI and waist measurement, Clinical Study Four; type: in vivo, human
Description: as §1

[5] = Food effect on bifeprunox PK (standard high-fat meal)
From the text: The objective of this study is to assess the pharmacokinetics (PK) of bifeprunox. The PK of bifeprunox in healthy subjects were investigated based on a pooled analysis of PK parameters from 21 clinical pharmacology studies. The pooled analysis included PK profiles after single and multiple doses to 132 and 399 subjects, respectively, and explored the potential effects of age, gender, body weight, and race. In addition, PK in patients with schizophrenia were investigated using a population PK approach based on samples from 376 patients in phase II studies and 434 patients in phase III studies.

[6] = BX20 (bifeprunox 20 mg), Last post-Baseline observation, APTS
[7] = BX20 (bifeprunox 20 mg), Month 3, APTS
[8] = BX20 (bifeprunox 20 mg), Month 6, APTS
[9] = BX20 (bifeprunox 20 mg), Week 6, APTS
[10] = BX20 (bifeprunox 20 mg), visit printed as Baseline, APTS
[11] = BX30 (bifeprunox 30 mg), Last post-Baseline observation, APTS
[12] = BX30 (bifeprunox 30 mg), Month 3, APTS
[13] = BX30 (bifeprunox 30 mg), Month 6, APTS
[14] = BX30 (bifeprunox 30 mg), Week 6, APTS

## O=c1[nH]c2cccc(N3CCN(Cc4cccc(-c5ccccc5)c4)CC3)c2o1 [Bifeprunox, 7-[4-([1,1′-biphenyl]-3-ylmethyl)-1-piperazinyl]-2(3H)-benzoxazolone]
[1]; BX20 or BX30
  PANSS positive subscale scores versus PBO, per-visit LOCF analysis: statistically significantly superior to that with PBO from Week 6 onwards
[1]; Month 6
  PANSS positive subscale, Adjusted Mean Change from Baseline (LS mean): 0.3
[1]; Week 6, listed as BX20
  PANSS positive subscale, Adjusted Mean Change from Baseline (LS mean): −0.9
[1]; Week 6, listed as BX30
  PANSS positive subscale, Adjusted Mean Change from Baseline (LS mean): −0.8
[2]; Month 6, listed as BX20
  CGI-S, Adjusted Mean Change from Baseline (LS mean): −0.1
[2]; Month 6, listed as BX30
  CGI-S, Adjusted Mean Change from Baseline (LS mean): 0.0
[2]; Week 6, listed as BX20
  CGI-S, Adjusted Mean Change from Baseline (LS mean): −0.2
[2]; Week 6, listed as BX30
  CGI-S, Adjusted Mean Change from Baseline (LS mean): −0.1
[2]; listed as BX20
  mean CGI-S scores, time points of statistically significant superiority to PBO: Months 3, 4, 5, and 6
[2]; listed as BX30
  mean CGI-S scores, time points of statistically significant superiority to PBO: Months 5 and 6
[3]; BX20, Month 6
  proportion of patients with a CGI-I score ≦2: 22%
[3]; BX20, Week 6
  proportion of patients with a CGI-I score ≦2: 17%
[3]; BX30, Month 6
  proportion of patients with a CGI-I score ≦2: 20%
[3]; BX30, Week 6
  proportion of patients with a CGI-I score ≦2: 19%
[3]; Month 6, ANCOVA
  CGI-I, Adjusted mean values (LS mean): 4.0
[3]; Week 6, ANCOVA, listed as BX20
  CGI-I, Adjusted mean values (LS mean): 3.8
[3]; Week 6, ANCOVA, listed as BX30
  CGI-I, Adjusted mean values (LS mean): 3.7
[3]; both BX doses, ANCOVA
  mean CGI-I scores versus PBO, per-visit LOCF analysis: statistically significantly superior to PBO from Week 6 onwards
[4]; [6]
  BMI, Mean: 24.3
  BMI, Median: 23.7
  Change from Baseline in BMI, Mean: −0.4
  Change from Baseline in BMI, Median: 0.0
  Change from Baseline in Weight, Mean: -1.0 kg
  Change from Baseline in Weight, Median: 0.0 kg
  Waist measurement, Mean: 81.6
  Waist measurement, Median: 79.5
  Weight PCS High (Increase from baseline >= 7%), (%): (2.8) %
  Weight PCS Low (Decrease from baseline >= 7%), (%): (9.1) %
  Weight, Mean: 69.7 kg
  Weight, Median: 68.0 kg
[4]; [7]
  BMI, Mean: 23.9
  BMI, Median: 23.1
  Change from Baseline in BMI, Mean: −0.2
  Change from Baseline in BMI, Median: 0.0
  Change from Baseline in Waist Measurement, Mean: −1.1
  Change from Baseline in Waist Measurement, Median: 0.0
  Change from Baseline in Weight, Mean: -0.6 kg
  Change from Baseline in Weight, Median: 0.0 kg
  Waist measurement, Mean: 79.5
  Waist measurement, Median: 76.5
  Weight PCS High (Increase from baseline >= 7%), (%): (0.0) %
  Weight, Mean: 68.1 kg
  Weight, Median: 66.0 kg
[4]; [8]
  BMI, Mean: 23.9
  BMI, Median: 23.1
  Change from Baseline in BMI, Mean: −0.2
  Change from Baseline in BMI, Median: 0.0
  Change from Baseline in Waist Measurement, Mean: −0.9
  Change from Baseline in Waist Measurement, Median: 0.0
  Change from Baseline in Weight, Mean: -0.6 kg
  Change from Baseline in Weight, Median: 0.0 kg
  Waist measurement, Mean: 79.4
  Waist measurement, Median: 77.7
  Weight PCS High (Increase from baseline >= 7%), (%): (6.8) %
  Weight PCS Low (Decrease from baseline >= 7%), (%): (10.2) %
  Weight, Mean: 68.2 kg
  Weight, Median: 67.0 kg
[4]; [9]
  BMI, Mean: 24.3
  BMI, Median: 23.8
  Change from Baseline in BMI, Mean: −0.2
  Change from Baseline in BMI, Median: 0.0
  Change from Baseline in Waist Measurement, Mean: −1.1
  Change from Baseline in Waist Measurement, Median: 0.0
  Change from Baseline in Weight, Mean: -0.6 kg
  Change from Baseline in Weight, Median: 0.0 kg
  Waist measurement, Mean: 81.6
  Waist measurement, Median: 78.0
  Weight PCS High (Increase from baseline >= 7%), (%): (0.0) %
  Weight PCS Low (Decrease from baseline >= 7%), (%): (4.8) %
  Weight, Mean: 69.7 kg
  Weight, Median: 67.0 kg
[4]; [10]
  Change from Baseline in Waist Measurement, Mean: −0.0
  Change from Baseline in Waist Measurement, Median: 0.0
[4]; [11]
  BMI, Mean: 24.5
  BMI, Median: 23.7
  Change from Baseline in BMI, Mean: −0.4
  Change from Baseline in BMI, Median: 0.0
  Change from Baseline in Waist Measurement, Mean: −0.4
  Change from Baseline in Waist Measurement, Median: 4.4
  Change from Baseline in Weight, Mean: -1.2 kg
  Change from Baseline in Weight, Median: 0.0 kg
  Waist measurement, Mean: 82.6
  Waist measurement, Median: 80.4
  Weight PCS High (Increase from baseline >= 7%), (%): (2.7) %
  Weight PCS Low (Decrease from baseline >= 7%), (%): (9.5) %
  Weight, Mean: 70.9 kg
  Weight, Median: 68.5 kg
[4]; [12]
  BMI, Mean: 24.4
  BMI, Median: 23.4
  Change from Baseline in BMI, Median: −0.1
  Change from Baseline in Waist Measurement, Mean: −0.4
  Change from Baseline in Waist Measurement, Median: 0.0
  Change from Baseline in Weight, Mean: -1.1 kg
  Change from Baseline in Weight, Median: -0.5 kg
  Waist measurement, Mean: 81.6
  Waist measurement, Median: 79.5
  Weight PCS Low (Decrease from baseline >= 7%), (%): (11.4) %
  Weight, Mean: 70.1 kg
  Weight, Median: 68.0 kg
[4]; [13]
  BMI, Mean: 24.4
  BMI, Median: 23.7
  Change from Baseline in BMI, Mean: −0.0
  Change from Baseline in BMI, Median: 0.0
  Change from Baseline in Waist Measurement, Mean: −0.0
  Change from Baseline in Waist Measurement, Median: 0.1
  Change from Baseline in Weight, Mean: -0.1 kg
  Change from Baseline in Weight, Median: 0.0 kg
  Waist measurement, Mean: 81.1
  Waist measurement, Median: 78.0
  Weight PCS High (Increase from baseline >= 7%), (%): (7.3) %
  Weight PCS Low (Decrease from baseline >= 7%), (%): (7.3) %
  Weight, Mean: 71.4 kg
  Weight, Median: 70.0 kg
[4]; [14]
  BMI, Mean: 24.8
  BMI, Median: 23.9
  Change from Baseline in BMI, Mean: −0.3
  Change from Baseline in BMI, Median: 0.0
  Change from Baseline in Waist Measurement, Mean: −0.0
  Change from Baseline in Waist Measurement, Median: 0.0
  Change from Baseline in Weight, Mean: -0.9 kg
  Change from Baseline in Weight, Median: 0.0 kg
  Waist measurement, Mean: 83.9
  Waist measurement, Median: 80.0
  Weight PCS High (Increase from baseline >= 7%), (%): (0.0) %
  Weight PCS Low (Decrease from baseline >= 7%), (%): (4.7) %
  Weight, Mean: 72.2 kg
  Weight, Median: 70.0 kg
[5]; 40 mg dose
  increase in AUC with a standard high-fat meal: 29%
  increase in Cmax with a standard high-fat meal: 10%
[5]; human, plasma, oral, 40 mg
  Tmax: 1.5 h
